Data on 15 compounds can be found in patent publication US8889156B2, “Calcium-binding agents induce hair growth and/or nail growth” (priority 2009, dated 2014).

The conditions of experiment [1]: literature values quoted for comparison; cited from earlier work.
Experiment [2] can be described thus: HA binding assay (pulldown of fluorescein-labeled peptides, Langmuir isotherm fit). The following applies: for Nmax (maximum monolayer surface concentration) / KA (binding affinity for HA): fit of Langmuir equation; for KA (binding affinity for HA): fluorescein-labeled peptide 0-100 μM, 0.3 mg HA nanocrystals. The method, then: Fluorescein-labeled DSS-containing peptides of various lengths were subjected to pulldown assays as follows: Samples containing varying concentrations of fluorescein-labeled peptide (0-100 μM) and a fixed amount (0.3 mg) of HA nanocrystals with a specific surface area of 100 m^2/g (Berkeley Advanced Biomaterials, Berkeley, Calif.) were prepared. Measurements were taken of the absorbance of the labeled peptide at 488 nm (the peak absorbance of the fluorescein label) before and after exposure to the HA. The amount of peptide bound was calculated by comparing the ratio of the final (Af) and initial (Ai) absorbances to the initial concentration (C0) [Cbound=(Af/Ai)C0]. Plots were generated of the amount of peptide bound per meter squared of HA surface area vs. concentration of unbound peptide at equilibrium. The resulting isotherms were fit to the Langmuir isotherm, x/m=(KANmaxCeq)/(1+KACeq), where x/m represents the molar amount of peptide bound per unit of HA surface area, KA is the affinity constant of the peptide for the HA surface (L/Mol), Nmax is the maximum surface concentration (mol/m^2), and Ceq is the molar concentration of unbound peptide at equilibrium (Calis et al. (1995) Pharm Res., 12: 1072-1076).
In order to quantitatively assess the strength of the DSS-HA interaction as well as to determine the roles of peptide length and sequence on binding, fluorescein-labeled, DSS-containing peptides of various lengths were subjected to pulldown assays as described in “Materials and Methods.”
The experimental data were fit to the Langmuir isotherm, which describes the binding of molecules to surfaces with the conditions that (1) all binding sites have the same affinity for the peptide and (2) the peptide will form a monolayer on the surface but cannot accumulate to higher levels (Atkins (1994) Physical chemistry. Freeman, New York). The excellent fit of the Langmuir isotherm to the experimental data validates these conditions, and the constants obtained from this analysis were used for comparisons between peptides. As shown in FIG. 7A and summarized in Table 6, both the binding affinity (KA) and the monolayer concentration (NMax) of the various peptides increased with the number of DSS repeats per peptide. Additionally, several variant peptides were tested (FIGS. 7B, 7C, Table 6): a peptide containing a longer side chain at the first position (4ESS (SEQ ID NO:34)), peptides containing a more sterically hindered hydroxyl group at the second and third positions (4DTT (SEQ ID NO:36), 4NTT (SEQ ID NO:38), 4ETT (SEQ ID NO:37)), peptides lacking a charged group at the first position (4NSS (SEQ ID NO:35), 8ASS (SEQ ID NO:26)), and peptides lacking hydroxyl groups at the second and third positions (DAA-8 (SEQ ID NO:40), 8NAA (SEQ ID NO:41)).

The nature of experiment [3]: Tissue specific binding of labeled peptides to sections of human teeth (CLSM). As to conditions: 5(6)-carboxyfluorescein-labeled peptide, ten minutes; for level of binding (staining) to tooth surfaces: identical settings. The source says: In order to investigate the tissue specificity of DSS peptide binding to tooth tissue, sections of human teeth were exposed to DSS peptides and variants, then imaged by CLSM. The peptides utilized for these experiments were 8DSS (SEQ ID NO:33), 8ASS (SEQ ID NO:26), 8DAA (SEQ ID NO:40), 8NAA (SEQ ID NO:41), 4DSS (SEQ ID NO:31), 4ESS (SEQ ID NO:34), 4NSS (SEQ ID NO:35), 4DTT (SEQ ID NO:36), 4ETT (SEQ ID NO:37), 4NTT (SEQ ID NO:38), and 6DSS (SEQ ID NO:32). Sagittal sections of human teeth extracted during normal clinical practice were polished and then incubated for ten minutes in a solution of the appropriate 5(6) carboxyfluorescein-labeled peptide (12.5pM) containing 10 mM NaCl and 50 mM HEPES, pH 7.0. Control samples were prepared without peptide. Samples were washed extensively after treatment and imaged by CLSM using blue laser illumination (A=488 nm) and a FITC emission filter, with identical camera and microscope settings for each sample. For each section, multiple scans were collected and assembled in an automated mode to generate panels of images representing an area of 13×13 mm, sufficient in most cases to encompass the whole section. […] Significant binding was also seen to the edges of the pulp cavity.

Experiment [4] is described as follows: Binding of labeled peptides to carious lesions in teeth (CLSM). Also noted: species or system human. The following applies: labeled peptide, settings optimized per sample. The source says:
Sections of human teeth containing obvious carious lesions, which consist of demineralized enamel, were polished and exposed to 5(6)-carboxyfluorescein-labeled DSS peptides and variants. The sections were washed extensively and imaged by CLSM using blue laser illumination (A=488 nm) and a FITC emission filter, with microscope and camera settings adjusted for each sample to optimize the signal detected from each peptide. The images were examined to identify the relative levels of peptide binding in healthy versus carious tissue. […] Given their ability to remineralize at sites of enamel degradation, they can also be used to initiate remineralization at sites of enamel degradation such as caries or injury sites without causing inappropriate nucleation on healthy tissue surfaces.

Experiment [5] deals with mineralizing mouse bone marrow nodules. Put plainly: Binding to mineralizing mouse bone marrow cultures (fluorescence microscopy). The following applies: labeled peptide, continuous treatment for 3 weeks. In kind it is cell-based. As for the experimental part: Mouse bone marrow cultures were grown to confluence in DMEM+10% FBS and then treated continuously for 3 weeks with either 2.5 p.M 5(6)-carboxyfluorescein-labeled 6DSS (SEQ ID NO:32) or 2.5 p.M 5(6)-carboxyfluorescein-labeled peptide #3-1 (control peptide) in α-MEM+10% FBS+50 p.g/mL ascorbic acid 4 mM β-glycerophosphate. Cultures were imaged by fluorescence microscopy using a FITC excitation/emission filter set.
Having established that (DSS)n-containing peptides are able to actively bind HA, we sought to determine whether they would bind to emerging sites of mineralization in biologically derived tissue. Mouse bone marrow (MBM) cultures, cultured under osteogenic conditions, were treated continuously for 3 weeks with either labeled 6DSS (SEQ ID NO:32) peptide or labeled peptide #3-1 (non-calcium-binding control peptide). Cultures were imaged by fluorescence microscopy using a FITC excitation/emission filter set.

Experiment [6] can be described thus: Free peptide with CaCl2 and NaHPO4: formation of HA crystals in solution. As to conditions: 25 μM free peptide.
Experiment [7] can be described thus: Binding of labeled peptide to sagittally sectioned adult human molars (CLSM, Example 6). As to conditions: fluorescein-labeled peptide, 10 min. As for the experimental part:
For binding experiments, sagittally sectioned adult human molars were incubated for 10 min in a solution of 12.5 p.M 5(6)-carboxyfluorescein-labeled 6DSS (SEQ ID NO:32) peptide containing 10 mM NaCl and 50 mM HEPES, pH 7.0. Control samples were prepared without peptide. Samples were rinsed after treatment and imaged by confocal laser scanning microscopy (CLSM) with illumination by a blue Kr/Ar laser (λ=488 nm) and a FITC emission filter. To test binding of DSS-containing peptides to biological tissue, sagittally sectioned human teeth were incubated treated with 6DSS (SEQ ID NO:32) (control samples were prepared without peptide), washed, and imaged by CLSM.

In experiment [8] the test system is Streptococcus mutans strain UA159. In kind it is cell-based. As for the experimental part: The sequences of these fusion proteins are […] NO:24), and […] NO:25) (see SEQ ID NOs:27-29, respectively in WO 2007/038683). The antimicrobial activity of these peptides against anaerobic planktonic bacteria was determined by a modification of a previously described assay. Briefly, Streptococcus mutans strain UA159 cells were diluted to -1×10^5 cfu/mL in Todd-Hewitt (TH) broth medium and mixed with either suspended hydroxyapatite nanocrystals (Berkeley Advanced Biomaterials, Inc., 0.03% w/v) or, for control samples, an equivalent volume of deionized water. Aliquots were transferred into 96-well plates (Fisher). Serial dilutions of the peptides were then made and added to the bacteria. […] Nonetheless, some antimicrobial activity is retained by this peptide.

Read-outs that look alike come from different tables or passages of the source. Ends that are not written are not given here.

Consider `N[C@@H](CC(=O)O)C(=O)O` [Asp, aspartic acid], for which, in experiment [1], the HA binding affinity was 220 M⁻¹.

For `N[C@@H](CCC(=O)O)C(=O)O` [glutamic acid], in experiment [1], the HA binding affinity is 206 M⁻¹.

For `N[C@@H](COP(=O)(O)O)C(=O)O` [phosphoserine], in experiment [1], the HA binding affinity was 5,000-13,200 M^−1.

Regarding `N[C@@H](CO)C(=O)O` [serine], the HA binding affinity in experiment [1] is reported as 317,000 M^−1.

With “DSS DSS DSS DSS (DSSDSSDSSDSS; synthetic calcium-binding peptide 4DSS)”, in experiment [2], the “Nmax (maximum monolayer surface concentration)” value (shortened to “Nmax”) is 5.8 × 10^−8 ± 6 × 10^−9 mol/m^2 and the “KA (binding affinity for HA)” value is reported as 94,000 ± 26,000 M^−1. Besides, the “tissue pattern of binding in the tooth section” value (“tissue pattern of binding” below) in experiment [3] is reported as “bound primarily to the mantle dentin”. Moreover, in experiment [4], the “specificity of binding to carious lesions versus healthy enamel” value is “highly specific binding to carious lesions” and the “strength of staining of carious lesions” value was “exceptionally strong staining of carious lesions”.

On to “DSS DSS DSS DSS DSS DSS (DSSDSSDSSDSSDSSDSS; synthetic calcium-binding peptide 6DSS)”, for which the “staining of mineralizing MBM nodules” value in experiment [5] was “bright staining of the mineralizing MBM nodules”. Further, in experiment [2], the “Nmax” value is on record as 1.3 × 10^−7 ± 3 × 10^−9 mol/m^2 and the “KA (binding affinity for HA)” value was 272,000 ± 26,000 M^−1. Besides, in experiment [3], the “tissue pattern of binding” value is given as “bound primarily to the mantle dentin” and the “level of binding (staining) to tooth surfaces” value (“level of binding (staining)” for short) is listed as “the greatest levels of staining”. Further, in experiment [6], the “enhancement of HA crystal formation by free peptide at subcritical CaHPO4 concentrations” value is on record as “this was not observed”. Also, in experiment [4], the “specificity of binding to carious lesions versus healthy enamel” value is reported as “highly specific binding to carious lesions” and the “strength of staining of carious lesions” value was “exceptionally strong staining of carious lesions”. In experiment [7], the binding to dentin entry was “intense fluorescent staining” and the binding to enamel result is on record as “no binding to the enamel was seen”.

As to “DSSDSSDSSDSSGGGRWRWRWF [4DSS-2c4, DSS DSS DSS DSS GGG RWRWRWF]”, the MIC result is given as “unaffected” in experiment [8] (planktonic S. mutans, with 0.03% (w/v) hydroxyapatite, approximately 24 hours) and 52.5 in experiment [8] (strain UA159, 24 h).

Regarding “ESS ESS ESS ESS (ESSESSESSESS; synthetic calcium-binding peptide 4ESS)”, in experiment [2], the “Nmax” value was 4.6 × 10^−8 ± 4 × 10^−9 mol/m^2 and the “KA (binding affinity for HA)” value is 81,000 ± 18,000 M^−1. For the same compound, in experiment [3], the “level of binding (staining)” value was “lower levels of binding”. In addition, in experiment [4], the “specificity of binding to carious lesions versus healthy enamel” value is recorded as “highly specific binding to carious lesions” and the “strength of staining of carious lesions” value was “exceptionally strong staining of carious lesions”.

Turning to “ETT ETT ETT ETT (ETTETTETTETT; synthetic calcium-binding peptide 4ETT)”, in experiment [2], the “Nmax” value was 8.8 × 10^−8 ± 9 × 10^−9 mol/m^2 and the “KA (binding affinity for HA)” value is listed as 79,000 ± 25,000 M^−1. In addition, in experiment [2] (in words), the “effect of sequence variation on binding affinity (KA) relative to DSS peptide of same size” value is recorded as “little observable effect”. Further, in experiment [3], the “tissue pattern of binding” value was “binding patterns similar to those of 4DSS” and the “level of binding (staining)” value is “sharply reduced levels”. Further, the “specificity of binding to carious lesions versus healthy enamel” value in experiment [4] is “highly specific binding to carious lesions”.

“FHFHLHF [PL-135, FHFHLHF, reference compound]” displayed an MIC in experiment [8] (strain UA159, 24 h) of 21.

Take LIKHILHRL [#3-1, reference compound]: the “staining of mineralizing MBM nodules” value in experiment [5] is given as “no binding seen”.

In experiment [8] (strain UA159, 24 h), “LKRFLKWFKRF [b-34, LKRF LKWF KRF, reference compound]” had an MIC of 5.6.

Turning to NAANAANAANAANAANAANAANAA [8NAA], the HA binding activity entry in experiment [2] (in words) is “near-total loss of binding activity”. In experiment [3], the “tissue pattern of binding” value is given as “did bind somewhat to a carious lesion” and the “level of binding (staining)” value is recorded as “very little binding to any healthy tissue”. For the same compound, the “specificity of binding to carious lesions versus healthy enamel” value in experiment [4] is on record as “highly specific binding to carious lesions”.

In the case of “NSS NSS NSS NSS (NSSNSSNSSNSS; synthetic calcium-binding peptide 4NSS)”, in experiment [2], the “Nmax” value was 3.0 × 10^−8 ± 1 × 10^−9 mol/m^2 and the “KA (binding affinity for HA)” value is 16,000 ± 4,000 M^−1. Further, in experiment [2] (in words), the “effect of sequence variation on binding affinity (KA) relative to DSS peptide of same size” value was “significant loss of binding affinity”. The “level of binding (staining)” value in experiment [3] is listed as “lower levels of binding”. Further, the “specificity of binding to carious lesions versus healthy enamel” value in experiment [4] is “highly specific binding to carious lesions”.

With “RWRWRWF [2c-4, RWRWRWF, reference compound]”, in experiment [8] (strain UA159, 24 h), the MIC was 2.
